Reference: PMC11587651, “Increased cytoplasmic expression of PETase enzymes in E. coli” (Microbial Cell Factories, 2024)

Target: T1, HiC (Mycothermus thermophilus, UniProt A0A075B5G4)
T1 construct: commercial enzyme Novozym 51032 (Strem), used as supplied
T1 sequence (A0A075B5G4 1-194): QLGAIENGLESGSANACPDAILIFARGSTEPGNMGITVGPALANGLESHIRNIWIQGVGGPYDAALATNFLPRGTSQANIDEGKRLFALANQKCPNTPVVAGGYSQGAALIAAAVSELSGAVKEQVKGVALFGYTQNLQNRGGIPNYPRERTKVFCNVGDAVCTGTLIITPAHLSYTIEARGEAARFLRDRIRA
Assay: HPLC of BHET to MHET conversion
Assay type: biochemical
Conditions: 24% acetonitrile, 76% 100 mM potassium phosphate pH 7, 40 °C, 0.1 g HiC per g BHET; product MHET

O=C(OCCO)c1ccc(C(=O)OCCO)cc1 [bis(2-hydroxyethyl) terephthalic acid]
HPLC of BHET to MHET conversion: enzymatic hydrolysis of BHET using Humicola insolens cutinase (HiC
